Our source for the TGI values is PubChem BioAssay (NCI).

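Results reflect a 48-hour exposure of cells in 96-well plates to compound at five concentrations. TGI: concentration producing complete growth inhibition.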

Test systems include DMS 273 small cell lung; KM20L2 colon; LXFL 529 NSCLC; M19-MEL melanoma; MDA-N; SNB-78 CNS; DMS 114 small cell lung; RXF-631 renal.
Common to all, as to assay: NCI-60 cell line screen, 48 h

Consider `COc1cc2c(cc1OC)[C@@H](Nc1ccc(C#N)cc1)C1COC(=O)[C@@H]1C2c1cc(OC)c(O)c(OC)c1` (stereo not given in full), for which the TGI was 1.9 µM in the test with DMS 273 small cell lung; 95 µM in the test with KM20L2 colon; 95 µM with LXFL 529 NSCLC; 95 µM in the test on M19-MEL melanoma; more than 100 µM in the test with MDA-N; 95 µM with SNB-78 CNS.

For `N#CCCN(c1ccc(C=Nc2ccccc2)cc1)S(=O)(=O)c1ccccc1`, the TGI in the test with DMS 114 small cell lung, in the test with DMS 273 small cell lung, in the test on LXFL 529 NSCLC, with M19-MEL melanoma and with SNB-78 CNS was more than 100 µM throughout.

Take `O=C1C2Nc3ccccc3SC2C(=O)N1c1ccc(Br)cc1` (stereo not given): the TGI in the test with DMS 114 small cell lung is 46.4 µM; in the test with DMS 273 small cell lung, more than 100 µM; with KM20L2 colon, more than 100 µM; with LXFL 529 NSCLC, 82.1 µM; in the test on M19-MEL melanoma, more than 100 µM; in the test with SNB-78 CNS it was 99.1 µM.

In the case of `C[C@@H](NC1CCCC[C@H]1O)c1ccccc1` (stereo not given in full), the TGI with DMS 273 small cell lung, in the test with KM20L2 colon, in the test on M19-MEL melanoma and in the test with SNB-78 CNS was more than 100 µM in each case.

As for `CCC(C)CCOC(=O)c1ccc(N=Cc2ccc(C=Nc3ccc(C(=O)OCCC(C)CC)cc3)cc2)cc1` (stereo not given), the TGI in the test with DMS 114 small cell lung, with DMS 273 small cell lung, in the test with KM20L2 colon, in the test on LXFL 529 NSCLC and in the test on SNB-78 CNS was more than 100 µM each time.

`COC(=O)c1n[nH]c(C)c1N=NN(C)CCC#N`: the TGI in the test with MDA-N was more than 100 µM.

On to `Cc1nc(-n2nc(-c3ccccc3)cc2-c2ccccc2)sc1C(=O)/C=C/c1ccc(/C=C/C(=O)c2sc(-n3nc(-c4ccccc4)cc3-c3ccccc3)nc2C)cc1`, for which the TGI with DMS 114 small cell lung is more than 100 µM; with DMS 273 small cell lung it was 44.9 µM; in the test with KM20L2 colon it was 36.4 µM; in the test on LXFL 529 NSCLC it was 67.3 µM; in the test on M19-MEL melanoma, 63 µM; in the test with RXF-631 renal, 78.9 µM. The same molecule showed a TGI in the test with SNB-78 CNS of 99.8 µM.

In the case of `CC(C)(CN1CCCCC1)C(=O)/C=C/c1ccc(/C=C/C(=O)C(C)(C)CN2CCCCC2)cc1`, the TGI worked out at 1.95 µM in the test on DMS 114 small cell lung; 1.23 µM with DMS 273 small cell lung; 1.65 µM in the test on KM20L2 colon; 0.682 µM in the test with LXFL 529 NSCLC; 2.35 µM with M19-MEL melanoma; 0.401 µM in the test on MDA-N. The same molecule yielded a TGI in the test with SNB-78 CNS of 7.17 µM.

Consider `CN(CCN1C(=O)c2cc([N+](=O)[O-])cc3cc([N+](=O)[O-])cc(c23)C1=O)CCN1C(=O)c2cc([N+](=O)[O-])cc3cc([N+](=O)[O-])cc(c23)C1=O`, for which the TGI in the test on DMS 114 small cell lung is 46.9 µM; in the test with DMS 273 small cell lung, 18.4 µM; in the test with KM20L2 colon it was more than 33.5 µM; with LXFL 529 NSCLC, 20.1 µM; in the test on M19-MEL melanoma, 4.4 µM; in the test with SNB-78 CNS it was 5.91 µM.

With `Nc1ncnc2c1ncn2[C@]1(CO)C=C(CO)C(O)C1O` (stereo not given in full), the TGI in the test with DMS 114 small cell lung, in the test on DMS 273 small cell lung, in the test with KM20L2 colon, in the test on LXFL 529 NSCLC, with RXF-631 renal and in the test on SNB-78 CNS was more than 100 µM each time.

`COc1ccc(NC(=O)C(=O)c2c(O)c3ccc(O)cc3oc2=O)c([N+](=O)[O-])c1`: the TGI with DMS 114 small cell lung, with DMS 273 small cell lung, in the test with KM20L2 colon, in the test on LXFL 529 NSCLC, in the test on M19-MEL melanoma and in the test with RXF-631 renal was more than 100 µM in each case.

As for `COc1ccc(/C=C(/C#N)C(N)=O)c(OC)c1`, the TGI with MDA-N is 52.6 µM.

With `Cc1cn(C2CC(O)C(COC(=O)c3ccccc3)O2)c(=O)[nH]c1=O` (stereo not given), the TGI with DMS 273 small cell lung, in the test with KM20L2 colon, in the test with LXFL 529 NSCLC, in the test on M19-MEL melanoma, in the test on RXF-631 renal and in the test with SNB-78 CNS was more than 100 µM in each case.

On to `Cc1ccc(S(=O)(=O)OCCn2cnc3nc(NC(=O)c4ccccc4)[nH]c(=O)c32)cc1`, for which the TGI with DMS 114 small cell lung, with DMS 273 small cell lung, with KM20L2 colon, with LXFL 529 NSCLC, in the test on M19-MEL melanoma and with SNB-78 CNS was more than 100 µM each time.

`COc1ccc(C/C(=N/O)C(=O)NCCc2cc(Br)c(OCCCN(C)C)c(Br)c2)cc1Br`: the TGI in the test with DMS 114 small cell lung was determined as 36.5 µM; with DMS 273 small cell lung, 7.61 µM; in the test on KM20L2 colon, 40.6 µM; with LXFL 529 NSCLC, 29.7 µM; in the test with M19-MEL melanoma it was 33.8 µM; with SNB-78 CNS it was 68.4 µM.

In the case of `O=C1CSCc2sccc21`, the TGI in the test on MDA-N was more than 100 µM.

On to `O=C(N/C(=C\c1ccc(Cl)cc1)c1nc2ccccc2[nH]1)c1ccccc1`, for which the TGI amounted to 42.9 µM in the test on DMS 273 small cell lung; 30.8 µM in the test with KM20L2 colon; 38.6 µM with LXFL 529 NSCLC; 34.7 µM in the test on M19-MEL melanoma; 85.4 µM in the test on SNB-78 CNS.

Turning to `CCCCCN(CCCCC)C(=O)[C@@H](CCC(=O)O)NC(=O)c1cc2ccccc2[nH]1`, the TGI was more than 100 µM in the test on DMS 114 small cell lung; more than 100 µM in the test with DMS 273 small cell lung; more than 100 µM in the test with KM20L2 colon; more than 100 µM with LXFL 529 NSCLC; 40.9 µM with M19-MEL melanoma; more than 100 µM with SNB-78 CNS.

In the case of `CC(C)(O)[C@@H]1CC[C@@]2(C)CCCC(O)C2(O)C1` (stereo not given in full), the TGI in the test on DMS 114 small cell lung, in the test on DMS 273 small cell lung, with KM20L2 colon, with LXFL 529 NSCLC, in the test on M19-MEL melanoma and with RXF-631 renal was more than 100 µM each time.

In the case of `O=C1NC(Cc2ccc(O)cc2)C(=O)N2CCCC12` (stereo not given), the TGI in the test with DMS 114 small cell lung, in the test on DMS 273 small cell lung, in the test on KM20L2 colon, with LXFL 529 NSCLC, with M19-MEL melanoma and with RXF-631 renal was more than 100 µM in each case. Besides, the TGI in the test on SNB-78 CNS was more than 100 µM.

Molecule `CC(C)C1=CC(=O)C(C)(C2C(O)CC3(C)C4CC=C5C(CCC(OC6OC(CO)C(O)C(O)C6OC6OC(C)C(O)C(O)C6O)C5(C)C)C4(C)C(=O)CC23C)O1` (stereo not given) gave a TGI with MDA-N of more than 100 µM.

As for `Cn1cc(C(=O)c2ccccc2)c2ccccc2c1=O`, the TGI in the test with DMS 114 small cell lung, in the test with DMS 273 small cell lung, in the test on LXFL 529 NSCLC and in the test on M19-MEL melanoma was more than 100 µM in each case.

As to `CC(C)c1[nH]nc(C(N)=O)c1N=NN(C)C`, the TGI with MDA-N was more than 100 µM.

Consider `c1ccc2sc(SCCSc3nc4ccccc4s3)nc2c1`, for which, in the test on MDA-N, the TGI is more than 100 µM.
